Test results from patent publication US20230346717A1, “IDENTIFICATION AND USE OF COMPOUNDS IN THE TREATMENT OR PREVENTION OF SEVERE ACUTE RESPIRATORY SYNDROME CORONAVIRUS 2” (priority 2020, published 2023).
Structures can show the parent of a compound that is named as a salt. Where two headings read alike, the source gives them in different places.

How the values were obtained:
Type in all cases: cell-based, human
ceroid-lipofuscinosis = assay: Gene expression assay, lysosome gene ceroid-lipofuscinosis; details: ARPE-19/HPV-16, 10 μM, 24 h
Description: (§1) A drug screen was used to test agents having the potential to treat or prevent SARS-CoV-2 infection. The retinal pigment epithelia cell line, ARPE-19/HPV-16, was chosen to establish a database of drug profiles because of its non-cancerous, human origin, with a normal karyotype. ARPE-19/HPV-16 can be easily grown as monolayer in 96-well plates and expresses a variety of well known, neuronal, cell surface receptors that include the dopamine receptor D2, the serotonin receptors 1A, 2A, and 2C, the muscarinic receptor M3, and the histamine receptor H1.
(§2) Cell lines were propagated according to supplier's specifications (ATCC Manassas, VA). Compounds were obtained from Sigma (St. Louis, MO) or Vanda Pharmaceuticals (Washington, DC). Cells were aliquoted on 96-well plates (˜2×10^5 cells/well) and incubated for 24 hours prior to providing fresh media with a drug, or the drug vehicle (water, dimethyl sulfoxide, ethanol, methanol, or phosphate-buffered saline solution). Drugs were diluted 1000-fold in buffered Advanced D-MEM/F-12 culture medium (Invitrogen, Carlsbad, CA) containing nonessential amino acids and 110 mg/L sodium pyruvate. In these conditions, no significant changes of pH were expected, which was confirmed by the monitoring of the pH indicator present in the medium.
A final 10 μM drug concentration was chosen because it is believed to fit in the range of physiological relevance. Microscopic inspection of each well was conducted at the end of the treatment to discard any samples where cells had morphological changes consistent with apoptosis. It was also verified that the drug had not precipitated in the culture medium.
Cells were harvested 24 hours after treatment and RNA was extracted using the RNeasy 96 protocol (Qiagen, Valencia, CA). Gene expression for 22,238 probe sets of 12,490 genes was generated with U133A2.0 microarrays following the manufacturer's instructions (Affymetrix, Santa Clara, CA). Drugs were profiled in duplicate or triplicate, with multiple vehicle controls on each plate. A total of 708 microarrays were analyzed including 74 for 18 antipsychotics, 499 for 448 other compounds, and 135 for vehicle controls.
The raw scan data were first converted to average difference values using MAS 5.0 (Affymetrix). The average difference values of both treatment and control data were set to a minimum threshold of 50 if below 50. For each treatment instance, all probe sets were then ranked based on their amplitude, or level of expression relative to the vehicle control (or average of controls when more than one was used). Amplitude was defined as the ratio of expression (t−v)/[(t+v)/2] where t corresponds to treatment instance and v to vehicle instance. […]

AGA = details: ARPE-19/HPV-16, 10 μM, 24 h
[1] = system: steroid sulfatase (microsomal); assay: Gene expression assay, lysosome gene steroid sulfatase (microsomal); details: probe 203767_s_at; ARPE-19/HPV-16, 10 μM, 24 h
Description: as §1
as §2, with “In these conditions, no significant changes of pH were expected, which was confirmed by the monitoring of the pH indicator present in the medium.” left out
(§3) Cells were harvested 24 hours after treatment and RNA was extracted using the RNeasy 96 protocol (Qiagen, Valencia, CA). […] A total of 708 microarrays were analyzed including 74 for 18 antipsychotics, 499 for 448 other compounds, and 135 for vehicle controls. […]

PSAP = assay: Gene expression assay, lysosome gene PSAP; details: probe 200866_s_at; ARPE-19/HPV-16, 10 μM, 24 h
Description: as §1
as §2, with “In these conditions, no significant changes of pH were expected, which was confirmed by the monitoring of the pH indicator present in the medium.” left out
as §3

N-acetyl-6-sulfatase = assay: Gene expression assay, lysosome gene N-acetyl-6-sulfatase; details: probe 212334_at; ARPE-19/HPV-16, 10 μM, 24 h
Description: as §1
as §2, with “In these conditions, no significant changes of pH were expected, which was confirmed by the monitoring of the pH indicator present in the medium.” left out
as §3

lysosome pathway genes = assay: Enrichment analysis of genes downregulated by amantadine (top 500 differentially expressed probes); details: ARPE-19/HPV-16, 10 μM, 24 h
Description: as §1
as §2, with “In these conditions, no significant changes of pH were expected, which was confirmed by the monitoring of the pH indicator present in the medium.” left out
as §3

With `NC12CC3CC(CC(C3)C1)C2` [Amantadine Hydrochloride] the “avg_tx (log2) ceroid-lipofuscinosis” value (ceroid-lipofuscinosis; probe 204085_s_at) was 5.93 log2, the “diff (log2) ceroid-lipofuscinosis” value (ceroid-lipofuscinosis; probe 204085_s_at) was −1.74 log2 and the “avg_tx (log2) ceroid-lipofuscinosis” value (ceroid-lipofuscinosis; probe 214252_s_at) was 6.13 log2. The “diff (log2) ceroid-lipofuscinosis” value (ceroid-lipofuscinosis; probe 214252_s_at) was −1.57 log2, the “avg_tx (log2) AGA” value (AGA; probe 204332_s_at) was 9.18 log2 and the “diff (log2) AGA” value (AGA; probe 204332_s_at) was −1.39 log2. For the same molecule, the “avg_tx (log2) AGA” value (AGA; probe 204333_s_at) was 6.57 log2, the “diff (log2) AGA” value (AGA; probe 204333_s_at) was −1.6 log2 and the “avg_tx (log2) AGA” value (AGA; probe 216064_s_at) was 8.12 log2. The “diff (log2) AGA” value (AGA; probe 216064_s_at) was −1.38 log2, the “avg_tx (log2) steroid sulfatase (microsomal)” value [1] was 5.55 log2 and the “diff (log2) steroid sulfatase (microsomal)” value [1] was −1.47 log2. For the same molecule, the “avg_tx (log2) PSAP” value (PSAP) was 10.59 log2, the “diff (log2) PSAP” value (PSAP) was −1.36 log2 and the “avg_tx (log2) N-acetyl-6-sulfatase” value (N-acetyl-6-sulfatase) was 9.71 log2. For the same molecule, the “diff (log2) N-acetyl-6-sulfatase” value (N-acetyl-6-sulfatase) was −1.27 log2 and the “expression reduction of the top 500 differentially expressed probes (383 genes)” value (lysosome pathway genes) was “at least 50%”.
